In PubChem BioAssay (NCI):
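Dose response: 5 concentrations. Exposure: 48 h. Format: 96-well plates. Endpoint: linear interpolation; highest concentration if not reached. GI50 is the concentration that inhibits growth by half. At the TGI there is no net growth.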

Experiments:
Test in all cases: inhibition of tumour cell growth, NCI panel, 48 h
[1] = system: 786-0 renal
[2] = system: A498 renal
[3] = system: A549 NSCLC
[4] = system: ACHN renal
[5] = system: BT-549 breast
[6] = system: CAKI-1 renal
[7] = system: CCRF-CEM leukemia
[8] = system: COLO 205 colon
[9] = system: DU-145 prostate
[10] = system: EKVX NSCLC
[11] = system: HCC-2998 colon
[12] = system: HCT-116 colon
[13] = system: HCT-15 colon
[14] = system: HL-60(TB) leukemia
[15] = system: HOP-62 NSCLC
[16] = system: HOP-92 NSCLC
[17] = system: HS 578T breast
[18] = system: HT29 colon
[19] = system: IGROV1 ovarian
[20] = system: K-562 leukemia
[21] = system: KM12 colon
[22] = system: LOX IMVI melanoma
[23] = system: M14 melanoma
[24] = system: MALME-3M melanoma
[25] = system: MCF7 breast
[26] = system: MDA-MB-231 breast
[27] = system: MDA-MB-435
[28] = system: MOLT-4 leukemia
[29] = system: NCI-H226 lung
[30] = system: NCI-H23 lung
[31] = system: NCI-H460 lung
[32] = system: NCI-H522 lung
[33] = system: NCI/ADR-RES ovarian
[34] = system: OVCAR-4 ovarian
[35] = system: OVCAR-5 ovarian
[36] = system: OVCAR-8 ovarian
[37] = system: PC-3 prostate
[38] = system: RXF 393 renal
[39] = system: SF-268 CNS
[40] = system: SF-295 CNS
[41] = system: SF-539 CNS
[42] = system: SK-MEL-2 melanoma
[43] = system: SK-MEL-28 melanoma
[44] = system: SK-MEL-5 melanoma
[45] = system: SK-OV-3 ovarian
[46] = system: SN12C renal
[47] = system: SNB-19 CNS
[48] = system: SNB-75 CNS
[49] = system: SR leukemia
[50] = system: SW-620 colon
[51] = system: T-47D breast
[52] = system: TK-10 renal
[53] = system: U251 CNS
[54] = system: UACC-257 melanoma
[55] = system: UACC-62 melanoma
[56] = system: UO-31 renal
[57] = system: RPMI-8226 leukemia

CCn1c(SCC(=O)Nc2cccc(C(=O)/C=C/c3cc(OC)c(OC)c(OC)c3)c2)nc2ccccc2c1=O
GI50 [1]: 1.94 µM
TGI [1]: 3.92 µM
GI50 [2]: 2.15 µM
TGI [2]: 9.11 µM
GI50 [3]: 3.05 µM
TGI [3]: 30.8 µM
GI50 [4]: 2.29 µM
TGI [4]: 6.61 µM
GI50 [5]: 2.66 µM
TGI [5]: 9.31 µM
GI50 [6]: 3.75 µM
TGI [6]: > 100 µM
GI50 [7]: 2.57 µM
TGI [7]: > 100 µM
GI50 [8]: 3.91 µM
TGI [8]: 89.1 µM
GI50 [9]: 2.36 µM
TGI [9]: 6.12 µM
GI50 [10]: 4.26 µM
TGI [10]: 56.7 µM
GI50 [11]: 2 µM
TGI [11]: 4.49 µM
GI50 [12]: 1.73 µM
TGI [12]: 3.75 µM
GI50 [13]: 2.27 µM
TGI [13]: 9.62 µM
GI50 [14]: 3.38 µM
TGI [14]: > 100 µM
GI50 [15]: 2.46 µM
TGI [15]: 6.78 µM
GI50 [16]: 3.17 µM
TGI [16]: > 100 µM
GI50 [17]: 3.64 µM
TGI [17]: > 100 µM
GI50 [18]: 2.07 µM
TGI [18]: 4.39 µM
GI50 [19]: 1.8 µM
TGI [19]: 4.31 µM
GI50 [20]: 3.19 µM
TGI [20]: > 100 µM
GI50 [21]: 1.89 µM
TGI [21]: 4.52 µM
GI50 [22]: 1.18 µM
TGI [22]: 2.63 µM
GI50 [23]: 2.9 µM
TGI [23]: > 100 µM
GI50 [24]: 6.52 µM
TGI [24]: > 100 µM
GI50 [25]: 2.3 µM
TGI [25]: > 100 µM
GI50 [26]: 5.26 µM
TGI [26]: > 100 µM
GI50 [27]: 3.12 µM
TGI [27]: 48.2 µM
GI50 [28]: 3.55 µM
TGI [28]: > 100 µM
GI50 [29]: 1.91 µM
TGI [29]: 5.55 µM
GI50 [30]: 2.63 µM
TGI [30]: 8.58 µM
GI50 [31]: 2.6 µM
TGI [31]: 11.7 µM
GI50 [32]: 2.86 µM
TGI [32]: 9.29 µM
GI50 [33]: 2.89 µM
TGI [33]: 15.4 µM
GI50 [34]: 5.52 µM
TGI [34]: > 100 µM
GI50 [35]: 2.36 µM
TGI [35]: 5.65 µM
GI50 [36]: 3.16 µM
TGI [36]: > 100 µM
GI50 [37]: 5.09 µM
TGI [37]: > 100 µM
GI50 [38]: 1.56 µM
TGI [38]: 7.82 µM
GI50 [39]: 4.13 µM
TGI [39]: > 100 µM
GI50 [40]: 4.1 µM
TGI [40]: 20.6 µM
GI50 [41]: 2.3 µM
TGI [41]: 5.77 µM
GI50 [42]: 3.3 µM
TGI [42]: 15.3 µM
GI50 [43]: 3.66 µM
TGI [43]: > 100 µM
GI50 [44]: 9.79 µM
TGI [44]: 32 µM
GI50 [45]: 16.2 µM
TGI [45]: 76.3 µM
GI50 [46]: 3.86 µM
TGI [46]: > 100 µM
GI50 [47]: 3.89 µM
TGI [47]: > 100 µM
GI50 [48]: 2.65 µM
TGI [48]: > 100 µM
GI50 [49]: 1.29 µM
TGI [49]: > 100 µM
GI50 [50]: 2.48 µM
TGI [50]: 7.05 µM
GI50 [51]: 5.08 µM
TGI [51]: > 100 µM
GI50 [52]: 7.08 µM
TGI [52]: > 100 µM
GI50 [53]: 2.35 µM
TGI [53]: 6.46 µM
GI50 [54]: 12.5 µM
TGI [54]: > 100 µM
GI50 [55]: 4.43 µM
TGI [55]: 76.7 µM
GI50 [56]: 1.7 µM
TGI [56]: 6.42 µM

C#Cc1nc(C(=O)NCCC(=O)Nc2ccc(NC(=O)c3ccc(/C=C/C(=O)c4nccn4C)cc3)cc2)cs1
GI50 [1]: 0.939 µM
TGI [1]: 1.76 µM
GI50 [2]: 7.39 µM
TGI [2]: 19.2 µM
GI50 [3]: 2.23 µM
TGI [3]: > 50 µM
GI50 [4]: 0.899 µM
TGI [4]: 1.66 µM
GI50 [5]: 1.76 µM
TGI [5]: 11.3 µM
GI50 [6]: 2.41 µM
TGI [6]: 20.1 µM
GI50 [7]: 0.954 µM
TGI [7]: 2.32 µM
GI50 [8]: 4.95 µM
TGI [8]: 47 µM
GI50 [9]: 2.32 µM
TGI [9]: > 50 µM
GI50 [10]: 2.79 µM
TGI [10]: > 50 µM
GI50 [11]: 2.14 µM
TGI [11]: 7.95 µM
GI50 [12]: 1 µM
TGI [12]: 2.1 µM
GI50 [13]: 0.85 µM
TGI [13]: 1.98 µM
GI50 [14]: 0.857 µM
TGI [14]: 2.53 µM
GI50 [15]: 1.15 µM
TGI [15]: 2.83 µM
GI50 [16]: 1.07 µM
TGI [16]: 2.78 µM
GI50 [17]: 4.55 µM
TGI [17]: > 50 µM
GI50 [18]: 1.13 µM
TGI [18]: 2.54 µM
GI50 [19]: 0.878 µM
TGI [19]: 1.8 µM
GI50 [20]: 1.2 µM
TGI [20]: > 50 µM
GI50 [21]: 2.88 µM
TGI [21]: 32.5 µM
GI50 [23]: 3.43 µM
TGI [23]: 20.8 µM
GI50 [24]: 1.4 µM
TGI [24]: 4.64 µM
GI50 [25]: 1.26 µM
TGI [25]: 4.98 µM
GI50 [26]: 1.13 µM
TGI [26]: 2.6 µM
GI50 [27]: 1.71 µM
TGI [27]: 6.79 µM
GI50 [28]: 1.29 µM
TGI [28]: 3.53 µM
GI50 [29]: 1.35 µM
TGI [29]: 4.02 µM
GI50 [30]: 1.22 µM
TGI [30]: 3.41 µM
GI50 [31]: 1.57 µM
TGI [31]: 4.6 µM
GI50 [32]: 1.04 µM
TGI [32]: 2.27 µM
GI50 [33]: 3.27 µM
TGI [33]: > 50 µM
GI50 [34]: 24.9 µM
TGI [34]: > 50 µM
GI50 [35]: 1.58 µM
TGI [35]: 4.94 µM
GI50 [36]: 1.75 µM
TGI [36]: > 50 µM
GI50 [37]: 1.38 µM
TGI [37]: 3.88 µM
GI50 [57]: 0.934 µM
TGI [57]: 2.2 µM
GI50 [38]: 1.04 µM
TGI [38]: 2.75 µM
GI50 [39]: 1.72 µM
TGI [39]: 13.3 µM
GI50 [40]: 2.37 µM
TGI [40]: 8.43 µM
GI50 [41]: 0.911 µM
TGI [41]: 1.67 µM
GI50 [42]: 35.8 µM
TGI [42]: > 50 µM
GI50 [43]: 7 µM
TGI [43]: 29.9 µM
GI50 [44]: 3.13 µM
TGI [44]: 11.1 µM
GI50 [45]: 11.5 µM
TGI [45]: > 50 µM
GI50 [46]: 1.3 µM
TGI [46]: 4.49 µM
GI50 [47]: 1.83 µM
TGI [47]: 7.4 µM
GI50 [48]: 1.43 µM
TGI [48]: 9.71 µM
GI50 [50]: 1.23 µM
TGI [50]: 2.83 µM
GI50 [51]: 2.22 µM
TGI [51]: > 50 µM
GI50 [52]: 8.94 µM
TGI [52]: > 50 µM
GI50 [53]: 0.886 µM
TGI [53]: 2.04 µM
GI50 [54]: 18.7 µM
TGI [54]: > 50 µM
GI50 [55]: 3.01 µM
TGI [55]: 10.9 µM
GI50 [56]: 0.763 µM
TGI [56]: 1.49 µM
